Converted amounts (≈) assume the structure as drawn. Read-outs that look alike come from different tables or passages of the source.
Legend:
PBMCs = settings: read-out: IC50 (toxicity on PBMCs); cited from earlier work
murine macrophage cells = settings: cited from earlier work
[1] = Solubility in test solution; format: physicochemical; settings: solution with a maximum of 1% DMSO
Plasmodium berghei = settings: P. berghei infected mice, cited from earlier work
HL-7702 = HL-7702 cells; cited from earlier work
rodent = settings: cited from earlier work

Question: For Cc1cc(O)c2c(c1F)C(=O)C=CC2=O [8-Fluoro-5-hydroxy-7-methyl-1,4-naphthoquinone], which IC50 (PBMCs) is on record?
Answer: The IC50 was 189 µM.

Question: For Cc1cc(O)c2c(c1)C(=O)C(O)=CC2=O [2,5-Dihydroxy-7-methyl-1,4-naphthoquinone], which IC50 (PBMCs) is on record?
Answer: The IC50 was 54 µM.

Question: For COc1cc(C=O)ccc1O [vanillin], which IC50 (murine macrophage cells) is on record?
Answer: The IC50 was 645 µg/mL (≈ 4.24 mM).

Question: Which results are given for O=C1C(O)=C(Nc2ccccc2)C(=O)c2ccccc21 [4a, 2-hydroxy-3-anilino-1,4-naphthoquinone]?
Answer: Solubility [1]: soluble in the solution with a maximum of 1% DMSO; Parasitemia inhibition (%) Day 5 (Plasmodium berghei; vs untreated control): 53.3%; Parasitemia inhibition (%) Day 7 (Plasmodium berghei; vs untreated control): 18.5%; Mean Survival (Plasmodium berghei): 32.5 ± 6.6 days; Parasitemia Day 5 (Plasmodium berghei; first Parasitemia column): 0.7; Parasitemia Day 5 (Plasmodium berghei; second Parasitemia column, head printed Day 5): 2.2

Question: For Cc1cc(O)c2c(c1)C(=O)C=CC2=O [7-MJ, 5-Hydroxy-7-methyl-1,4-naphthoquinone], which IC50 (PBMCs) is on record?
Answer: The IC50 was 18.4 µM.

Question: Which results are given for O=C1C=C(O)C(=O)c2ccccc21 [2-hydroxy-1,4-naphthoquinone]?
Answer: Relative cytotoxicity among six naphthoquinones (HL-7702): less toxic; In vivo toxicity (rodent): highly toxic, causing both hemolytic anaemia and renal tubular necrosis

Source: PMC5617738 (Toxicology Reports, 2016)
